In general, IC50 refers to the concentration needed to halve the response being measured.

The test system of one assay is K562. Kind of assay: Cytotoxicity on K562 cancer cell line. Conditions: Homo sapiens; K562 chronic myelogenous leukemia; 96 h; 0.01-100 μM. The class given is cell-based. As for the experimental part: The effect of the compounds described herein on tumor cells was determined by the assay described by Latham et al., Oncogene 12:827-837 (1996). Tumor cells K562 (chronic myelogenous leukemia; leukemia cell line +ve for Bcr-Abl) or DU145 (prostate cancer) were plated in 12-well dishes at a cell density of 2.5×10^4 cells per well. The plated cells were treated 24 h. later with a DMSO solution of a compound as described herein at multiple concentrations ranging from 0.01 μM to 100 μM. The plates were examined 96 h. later under an inverted microscope, Olympus CK-2 using a 10× objective, and compound activity was noted by physical observation. When necessary, the total number of viable cells was determined by trypsinizing the wells and counting the number of viable cells, as determined by trypan blue exclusion, using a hemacytometer.

A further assay has as its target T1, ABL1 (E255K) (Homo sapiens, UniProt P00519, E255K).
T1 construct: purchased Reaction Biology Corporation
The experiment in a line: Inhibition of ABL mutants, kinase assay. The class given is biochemical. Conditions: 10 μM ATP; 5-dose IC50 mode. As for the experimental part:
(§1) Kinase assays were performed at Reaction Biology Corporation. To a freshly prepared buffer solution was added the target kinase at a concentration of […]. The contents were mixed gently, and then compound (8h) dissolved in DMSO was added to the reaction mixture in the appropriate concentration. The mixture was incubated at room temperature for 30 min. prior to addition of ATP to initiate the reaction. Compound (8h) was tested in a 5-dose IC50 mode with 10-fold serial dilutions starting at 10 μM. Staurosporine was used as a control compound in a 10-dose IC50 mode with 3-fold serial dilutions starting at 20 μM. Reaction was carried out at 10 μM ATP concentration.

The next assay concerns the target T2, ABL1 (G250E) (Homo sapiens, UniProt P00519, G250E).
T2 construct: purchased Reaction Biology Corporation
The experiment in a line: Inhibition of ABL mutants, kinase assay. The format is biochemical. The settings on record: 10 μM ATP; 5-dose IC50 mode. On the procedure:
as §1

The target of a further assay is T3, ABL1 (H396P) (Homo sapiens, UniProt P00519, H396P).
T3 construct: purchased Reaction Biology Corporation
Kind of assay: Inhibition of ABL mutants, kinase assay. The class given is biochemical. The settings on record: 10 μM ATP; 5-dose IC50 mode. On the procedure: as §1

For a further assay, the target named is T4, ABL1 (M351T) (Homo sapiens, UniProt P00519, M351T).
T4 construct: purchased Reaction Biology Corporation
Kind of assay: Inhibition of ABL mutants, kinase assay. The class given is biochemical. The settings on record: 10 μM ATP; 5-dose IC50 mode. On the procedure:
as §1

Another assay has as its target T5, ABL1 (Q252H) (Homo sapiens, UniProt P00519, Q252H).
T5 construct: purchased Reaction Biology Corporation
The experiment in a line: Inhibition of ABL mutants, kinase assay. Conditions: 10 μM ATP; 5-dose IC50 mode. The class given is biochemical. On the procedure: as §1

The target of the next assay is T6, ABL1 (T315I) (Homo sapiens, UniProt P00519, T315I).
T6 construct: purchased Reaction Biology Corporation
The experiment in a line: Inhibition of ABL mutants, kinase assay. The format is biochemical. Conditions: 10 μM ATP; 5-dose IC50 mode. As for the experimental part:
as §1

Another assay deals with T7, ABL1 (Y253F) (Homo sapiens, UniProt P00519, Y253F).
T7 construct: purchased Reaction Biology Corporation
Kind of assay: Inhibition of ABL mutants, kinase assay. The class given is biochemical. The settings on record: 10 μM ATP; 5-dose IC50 mode. As for the experimental part:
as §1

A further assay concerns the target T8, ABL2/ARG (Homo sapiens, UniProt P42684).
T8 construct: purchased Reaction Biology Corporation
The experiment in a line: Inhibition of ABL mutants, kinase assay. The class given is biochemical. The settings on record: 10 μM ATP; 5-dose IC50 mode. On the procedure: as §1

Bounds are passed on as bounds.

T8 sequence (P42684 whole entry): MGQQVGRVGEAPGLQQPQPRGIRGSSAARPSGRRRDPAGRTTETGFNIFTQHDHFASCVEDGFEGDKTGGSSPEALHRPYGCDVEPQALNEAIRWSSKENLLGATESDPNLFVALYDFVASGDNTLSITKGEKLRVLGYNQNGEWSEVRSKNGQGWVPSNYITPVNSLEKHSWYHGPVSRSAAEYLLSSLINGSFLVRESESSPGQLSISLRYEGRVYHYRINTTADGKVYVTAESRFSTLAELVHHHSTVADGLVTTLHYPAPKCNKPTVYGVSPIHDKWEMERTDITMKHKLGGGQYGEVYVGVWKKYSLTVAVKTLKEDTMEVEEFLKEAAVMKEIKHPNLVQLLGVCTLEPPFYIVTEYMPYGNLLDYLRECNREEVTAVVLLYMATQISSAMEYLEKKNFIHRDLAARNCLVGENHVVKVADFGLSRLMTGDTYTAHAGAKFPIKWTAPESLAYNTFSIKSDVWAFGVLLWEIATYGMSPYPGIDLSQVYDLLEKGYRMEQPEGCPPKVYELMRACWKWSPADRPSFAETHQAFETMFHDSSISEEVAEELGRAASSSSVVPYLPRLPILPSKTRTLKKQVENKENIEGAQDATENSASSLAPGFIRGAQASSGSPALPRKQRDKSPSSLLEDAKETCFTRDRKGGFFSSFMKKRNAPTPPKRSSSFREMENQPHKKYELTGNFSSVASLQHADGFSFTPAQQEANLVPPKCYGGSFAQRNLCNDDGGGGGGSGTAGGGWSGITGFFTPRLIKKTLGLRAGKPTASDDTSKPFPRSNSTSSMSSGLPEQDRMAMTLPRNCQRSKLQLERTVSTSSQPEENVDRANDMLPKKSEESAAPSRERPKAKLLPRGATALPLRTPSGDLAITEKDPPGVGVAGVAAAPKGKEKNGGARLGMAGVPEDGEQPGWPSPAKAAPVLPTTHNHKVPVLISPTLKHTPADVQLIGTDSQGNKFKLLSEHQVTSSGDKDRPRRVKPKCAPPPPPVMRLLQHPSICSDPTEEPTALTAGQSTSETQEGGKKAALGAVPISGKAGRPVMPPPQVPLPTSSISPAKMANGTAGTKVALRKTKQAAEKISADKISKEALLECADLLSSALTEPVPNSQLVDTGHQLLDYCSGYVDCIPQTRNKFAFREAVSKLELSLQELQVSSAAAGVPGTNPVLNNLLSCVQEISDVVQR

As for `CN1CCN(c2ccc(Nc3ncc(/C=C/C#N)c(NC4CCCC4)n3)cc2)CC1` [Compound 8h, 3-{4-Cyclopentylamino-2-[4-(4-methylpiperazin-1-yl)phenylamino]pyrimidin-5-yl}acrylonitrile], the concentration for half-maximal inhibition (IC50) in the assay with K562 is less than 1000 nM; against ABL1 (E255K), less than 100 nM; at ABL1 (G250E) it was less than 100 nM; against ABL1 (H396P), less than 100 nM; against ABL1 (M351T) it was less than 100 nM; on ABL1 (Q252H), less than 100 nM. Further, the IC50 against ABL1 (T315I), against ABL1 (Y253F) and against ABL2/ARG was less than 100 nM in each case.

For the origin of these results see patent publication US9815847B2 (Icahn School of Medicine at Mount Sinai, priority 2013, dated 2017).
